This assay relates to MCP-1 promoter. In words: MCP-1 promoter luciferase reporter in 3T3-L1 pre-adipocytes. The assay is classed as cell-based. The following applies: GW9662 30 μM. (In general: Reporter assays use an easily measured gene product as a stand-in for the process of interest.)

Experimental: 3T3-L1 cells (American Type Culture Collection, Manassas, Va.) were grown in 24-well plates in DMEM high glucose medium (Invitrogen, Carlsbad, Calif.) containing 10% fetal bovine serum (FBS) until 60-70% confluence. Before transfection, the medium was changed to 1% FBS. The cells cultured in 24-well plates were co-transfected with 0.8 μg plasmid DNA and 1 ng of pRL reporter control plasmid per well using F-1 transfection reagents (Targeting Systems, Santee, Calif.) according to the manufacturer's protocol. Transfection efficiencies were determined by cotransfecting the cells with a pcDNA™ 3.1/His/lacZ control vector at 24 h. The transfected cells were then treated with either a racemic ABA mixture (12.5 μM; Sigma) or rosiglitazone (1 μM; Cayman Chemicals, Ann Arbor, Mich.) for 24 hours. Designated wells were also treated with the PPAR γ antagonist GW9662 (30 μM; Cayman Chemicals). Transfected cells were harvested in reporter lysis reagent. Luciferase activity, normalized to pRL activity in the cell extracts was determined by using the dual luciferase reporter assay system (Promega, Madison, Wis.) in a TD-20/20 Single-Tube Luminometer (Turner Biosystems, Sunnyvale, Calif.). Relative luciferase activity (RLA) was calculated as a ratio of the chemiluminescence 10 seconds after the Luciferase Assay Reagent II (Promega) was added over the chemiluminescence 10 seconds after the Stop&Glo Reagent (Promega).
To further examine the effect of ABA on MCP-1 transactivation, 3T3-L1 preadipocytes were transfected with a MCP-1 promoter luciferase reporter construct and also cotransfected with a pCMX PPAR γ expression plasmid to increase endogenous PPAR γ activity. Cells were then treated with ABA (12.5 μM), rosiglitazone (1 μM), the PPAR γ antagonist GW9662 (30 μM), or a combination of agonist and inhibitor.

Turning to `O=C(Nc1ccccc1)c1cc([N+](=O)[O-])ccc1Cl` [GW9662, reference compound], the “inhibition of the effects of ABA and rosiglitazone on MCP-1 promoter activity” value is given as “inhibited”.

The values are drawn from patent US8367727B2, “Method of using abscisic acid to treat diseases and disorders” (priority 2006, dated 2013).
